According to a melting point compilation (Tetko et al.; mined from patent text by program, amines drawn as free bases though some values may be those of a salt):

Compound | melting point [°C]
Cc1ccc2c(c1)c1c(OCC#N)cccc1n2Cc1ccccc1 | 188
Cc1ccc(S(=O)(=O)N2[C@@H](CC#N)CC[C@H]2c2ccc(F)cc2)cc1 (racemic) | 116
O=C1Nc2cccc(-c3ccc(C(=O)O)cc3)c2/C1=C/c1ccc[nH]1 | 315 to 317
Cc1oc(-c2ccco2)nc1COc1ccc(COc2ncccc2CC#N)cc1 | 141 to 142
O=C(CN1CCN(c2cnccn2)CC1)N1CCC(CO)(c2cccc(C(F)(F)F)c2)CC1 | 223
CN1CCC23CC(=O)CCC2(O)C1Cc1cccc(O)c13 (stereo unspecified) | 233 to 236
N#CC(C#N)=C1N(CCCN2CCCCC2)CCN1CCN1CCCC1 | 63 to 64
CC1(C)COC(C(=O)/C=C/[C@@H]2[C@H]3CC(=O)O[C@H]3C[C@H]2OC(=O)c2ccccc2)OC1 | 141
Cc1ccc(S(=O)(=O)N2CCCC(CC(C#N)(c3ccc(F)cc3)c3ccc(F)cc3)C2)cc1 (stereo unspecified) | 142 to 143
CC(C)(O)c1nnc2ccc(-c3c(-c4ccc(F)cc4F)nc4n3CCC4)nn12 | 222 to 223
CC(C)[C@H](NC(=O)N(C)Cc1nc2ccccc2[nH]1)C(=O)N[C@@H](Cc1ccccc1)C[C@H](O)[C@H](Cc1ccccc1)NC(=O)OCc1cccnc1 | 97 to 100
N#Cc1cnc2c(c1Nc1cccc(Br)c1)C=C1N=CN=C1C2 | 286 to 288
CC1CCN=C2C(=O)c3cc(Br)ccc3N21 (stereo unspecified) | 127 to 129
CN1CCc2ccccc2C1=NNC(=O)Nc1ccc(C(F)(F)F)cc1 | 101 to 104
CC(=O)N1CCC2(CC1)Cn1cc([N+](=O)[O-])nc1O2 | 232 to 234
CCOC(=O)C1=C(C(F)(F)F)Nc2n[nH]cc2C1c1cccc2ccccc12 (stereo unspecified) | 119 to 120
C=CCC1(C(C)CC(=O)O)C(=O)NC(=O)NC1=O (stereo unspecified) | 200
O=C1CC(=O)CC(c2ccccc2Cl)C1 | 157 to 158
N#Cc1ccc(COc2ccc(-c3ccc(C4Cc5ccccc5C(O)C4)cc3)cc2)cc1 (stereo unspecified) | 172
CCSc1c(O)ccc2[nH]ncc12 | 116
O=Cc1cccc(OCc2ccccc2)c1Br | 125 to 126
COc1ccc(-c2nn(Cc3ccccc3)c(=O)c3ccccc23)c(O)c1OC | 155 to 156
CS(=O)(=O)c1ccc(-c2oc(CCC(N)=O)nc2-c2ccc(F)cc2)cc1 | 193 to 195
CN1C(=O)N(c2ccccc2)C(=O)C1=NC(Cl)C(Cl)(Cl)Cl (stereo unspecified) | 158 to 160
CC(=O)OC(c1cc2n(n1)CCOC2=O)C1(Br)C(=O)N2C(C(=O)OCc3ccc([N+](=O)[O-])cc3)=CSC21 (stereo unspecified) | 107 to 110
N#Cc1cnc2sc(I)cc2c1Nc1cccc2cc[nH]c12 | > 245

Compound | melting point [°C]
Ic1cnc(-c2ccccn2)[nH]1 | 175 to 179
COc1cccc2c1nc(C(F)F)n2-c1nc(N2CCOCC2)cc(N2C[C@@H](C)O[C@@H](C)C2)n1 | 132 to 134
O=C1N(CC2CCCO2)c2ccccc2C12COc1cc3c(cc12)CCCC3 (stereo unspecified) | 139 to 141
CN(C)C(=O)C1CC(c2ccc(-c3ccc(N4C[C@H](Cn5ccnn5)OC4=O)cc3F)cn2)=NO1 (stereo partly specified) | 180 to 190
CCCCCCCCCCc1ccc2c(c1)-n1c(C)nnc1C(C)N=C2c1ccccc1 (stereo unspecified) | 111 to 112
COc1cc2c(c(C(C)(C)C)c1)OC(=O)C2=C1C(=O)Nc2c(Br)cc(Br)cc21 | 303 to 314
CS(=O)(=O)c1ccc(-c2cnn(CC(F)(F)F)c(=O)c2SC2CCCC2)cc1 | 149 to 151
O=C(Nc1ccc(F)c(C(F)(F)F)c1)N1COc2cc(OCc3ccccc3)ccc21 | 144 to 146
O=C(O)c1cn(OCC2CN(Cc3ccccc3)CCN2Cc2ccccc2)c2cc(F)c(F)cc2c1=O (stereo unspecified) | 158 to 159
Cc1ccc(C(C#N)Nc2ccc(S(C)(=O)=O)cc2)cc1 (stereo unspecified) | 158 to 160
COc1cc2nc(N3CCN(C(=O)c4ccco4)CC3)[nH]c2cc1OC | 143 to 145
COc1cc(OC(=O)c2ccccc2)c2ccccc2c1OC(=O)c1ccccc1 | 63 to 64
c1cc(CC2CCNC3CCCN23)ccc1CC1CCNC2CCCN12 (stereo unspecified) | 110
COc1ccc(C2C(C(=O)c3ccc(C)cc3)=C(O)C(=O)N2c2ccc(C)nn2)cc1 (stereo unspecified) | 266
Cc1cc(-c2nc3cccnn3c2-c2ccnc(NC(=O)c3ccncc3)c2)ccc1F | 219 to 220
CCn1c(=O)n(Cc2ccccc2)c(=O)c2c(N3CCN(C)CC3)cc(Cl)cc21 | 68 to 75
CSc1ccc(-c2c(C)nnc(Cl)c2-c2ncc(Cl)cc2Cl)nc1 | 163
COC1(c2ccc(F)cc2)CCC(=NO)CC1 (stereo unspecified) | 86 to 89
Cc1cc(C)n(-c2nccc(Nc3cccc(C(F)(F)F)c3)n2)n1 | 98.5 to 99.6
NS(=O)(=O)c1cnc(C2CC2=O)s1 (stereo unspecified) | 148 to 149
O=[N+]([O-])c1ccc(Oc2ccc(C(F)(F)F)cc2Cl)cc1Oc1ccc(C(F)(F)F)cc1Cl | 111 to 113
CCN(c1nc(C)cc(C(O)c2cnccc2-c2ccccc2OC)n1)c1ccc(C(C)C)cc1Br (stereo unspecified) | 68 to 70
O=C1COc2ccc(NC(=O)C(=O)N3CCC(Cc4ccccc4)CC3)cc2N1 | 186 to 187
O=C1c2ccccc2CCc2ccc(Cl)cc21 | 64 to 65
Cc1cc(C)c(N2CCCc3c2nn(C)c3-c2ccccc2C(F)(F)F)c(C)c1 | 59 to 63
COc1cccc2nc(-c3ccc(C)cc3)cc(OCC(=O)N3CCOCC3)c12 | 132

Further lines, results first:

melting point [°C] | Compound
218 to 219 | COc1ccc(-c2ccc(C=CC(=O)O)s2)cc1C(C)(C)C
167 to 168 | Cc1cc(C)cc(C(=O)c2c(C(C)C)c(=O)[nH]c(=O)n2CC2CCCC2)c1
154 to 157 | CCc1ccc(Nc2c(-c3nnc(NCCNC)o3)ccc(F)c2F)c(F)c1
65 to 67 | COCC(C)(C)NC(=O)C(OC)Oc1ccc2ccc(Br)cc2c1 (stereo unspecified)
119 to 120 | COCCOc1cc(N)c(Cl)cc1C(=O)O
143 to 145 | CCN(CC)CCNC(=O)c1cc(Cl)c(N)cc1OCCNC(C)=O
93 to 95 | CCn1c(=N)c(-c2cc(OC)cc(OC)c2)cc2cnc(SC)nc21
134 to 135 | CC(C)(C)OC(=O)N1CC=C(c2c(F)cc(N)cc2F)CC1
88 to 89 | COc1cc([N+](=O)[O-])c2nccc(C)c2c1OCCCCc1ccccc1
207 to 208 | CCCCCS(=O)(=O)NC(=O)c1ccc2nc(C)n(Cc3ccc(N(C)C(=O)C(C)(C)C)cc3Cl)c2n1
182 to 184 | COc1nc2cc(Cl)c(Cl)c(N)c2nc1OC
102 to 104 | CCN1CCN(CCCOc2cc3ncc(C#N)c(Nc4cc(OC)c(Cl)cc4Cl)c3cc2OC)CC1
238 to 251 | O=C(O)c1sc(-c2cccnc2)nc1Cl
112 to 115 | COc1cc(CC(=O)NCCOc2ccc(C(=O)O)cc2[N+](=O)[O-])ccc1NC(=O)Nc1ccccc1C
63 | COC(=O)COc1ccc(CC(C)=O)cc1
238 to 241 | CC(=O)NC1(c2ccc(Cl)cc2)c2ccc(Cl)cc2-c2ncncc21 (stereo unspecified)
192 | CC(=Cc1ccccc1)C(=O)c1ccc(O)c(CC(=O)O)c1
143 to 145 | CC(=O)Oc1ccc(-c2cnc(NC(=S)Cc3ccccc3)c(Cc3ccccc3)n2)cc1
161 to 165 | CCC(C)(C)NC(Nc1ccc2c(c1)OCO2)=C(C#N)C(=O)C(C)(C)C
207 | CCOc1ccc(-c2c(Cl)ncn2-c2ccc(S(C)(=O)=O)cc2)cc1
115 to 117 | CCCCCCCCCCN(C[C@H]1CCC[C@H](CN(CCCCCCCCCC)C(=O)Nc2ccc(N(C)C)cc2)C1)C(=O)Nc1ccc(N(C)C)cc1 (relative stereo)
202 to 204 | O=C(O)c1ccccc1-c1nc(-c2ccc(Cl)c(Cl)c2)no1

melting point [°C] | Compound
256 to 257 | COc1cc(Nc2c(C#N)cnc3cc(OC)c(Br)cc23)c(Cl)cc1Cl
149 to 152 | COC(=O)c1ccccc1NC(=S)NN(C)C
86 to 88 | C#CCOc1cc(-c2ncnc(C(Cl)Cl)c2Cl)c(F)cc1Cl
218 to 220 | COc1ccc(S(=O)(=O)N(C)CP(=O)(O)O)cc1N
130 to 132 | CCCCOCCOc1ccc(-c2ccc3c(c2)C=C(C(=O)Nc2ccc(SCc4nncn4CC(C)C)cc2)CCN3CCC)cc1
40.5 to 41.5 | CCOC(=O)Cc1ccccc1I
93 | CCOC(=O)c1ccc(N)cc1Br
182 to 184 | CCOC(=O)Cc1ccc2c(c1)NC(NC(C)C)=NS2(=O)=O
194 to 195 | Cc1sc(C(=O)NCc2ccc3c(c2)OCO3)cc1NC(=O)NCc1ccccc1
66 to 68 | CCCc1c(O)ccc(C(=O)OC)c1O
147 to 149 | Nc1ccc(CCc2ccc(Cl)c(Cl)c2)cc1O
129 to 131 | CCOCCc1ccc(OCCN(C(=O)n2cncn2)c2ncnc3sc(CC)cc23)c(C)c1
90 to 93 | CC(=O)OC[C@@H](C)[C@H]1CC[C@H]2[C@@H]3C=CC4=CC(=O)C=C[C@]4(C)[C@H]3CC[C@]12C
90 to 91 | COc1ccc(NC(=O)CCl)c(OC)c1
54 to 56 | O=C(Nc1ccccc1)OCCCCCCCCCCC=C(F)F
157 to 158 | CCCC1CC(=O)c2c(NC(=O)C(=O)O)ccc(C)c21 (stereo unspecified)
195 to 196 | CCC(C(=O)Nc1c(C)cccc1C)N1C(=O)c2ccccc2C1=O (stereo unspecified)
89 to 91 | CCOC(=O)Oc1ccc(S(=O)(=O)N2c3cc(F)c(F)cc3-n3cccc3C2C)cc1 (stereo unspecified)
161 to 162 | CC(C)Nc1cccnc1N1CCN(C(=O)c2ccc(C(=O)N(CCO)CCO)cc2)CC1
55 to 58 | COC(=O)CC1CCCC2CC(=O)N(OCC(=O)C(CC(=O)O)NC(=O)OCc3ccccc3)C12 (stereo unspecified)
158 to 159 | CN(C)CCNC(=O)[C@H]1C[C@H](NC(=O)Cc2ccccc2)c2c(Cl)cc(Cl)cc2N1 (relative stereo)
122 | CCOC(=O)C1=C(COCCN)NC=C(C(=O)OC)C1c1cccc(C(F)(F)F)c1Cl (stereo unspecified)
